# Measured values: patent US20220177471A1, “N-1 BRANCHED ALKYL SUBSTITUTED IMIDAZO[4,5-C]QUINOLINE COMPOUNDS, COMPOSITIONS, AND METHODS” (3M INNOVATIVE PROPERTIES COMPANY, priority 2019, published 2022)
# How the values were obtained:
# human TLR7 = molecular target: T1, human TLR7 (Homo sapiens, UniProt Q9NYK1); assay: TLR activation, HEK-BLUE-hTLR7 SEAP reporter cells; assay type: cell-based; settings: 16-20 hours, lowest concentration giving SEAP response at least 2x vehicle control, tested 0.01-30 micromolar
# T1 construct: host or cells: HEK293 (HEK-BLUE-hTLR7)
# T1 sequence (Q9NYK1 27-1049): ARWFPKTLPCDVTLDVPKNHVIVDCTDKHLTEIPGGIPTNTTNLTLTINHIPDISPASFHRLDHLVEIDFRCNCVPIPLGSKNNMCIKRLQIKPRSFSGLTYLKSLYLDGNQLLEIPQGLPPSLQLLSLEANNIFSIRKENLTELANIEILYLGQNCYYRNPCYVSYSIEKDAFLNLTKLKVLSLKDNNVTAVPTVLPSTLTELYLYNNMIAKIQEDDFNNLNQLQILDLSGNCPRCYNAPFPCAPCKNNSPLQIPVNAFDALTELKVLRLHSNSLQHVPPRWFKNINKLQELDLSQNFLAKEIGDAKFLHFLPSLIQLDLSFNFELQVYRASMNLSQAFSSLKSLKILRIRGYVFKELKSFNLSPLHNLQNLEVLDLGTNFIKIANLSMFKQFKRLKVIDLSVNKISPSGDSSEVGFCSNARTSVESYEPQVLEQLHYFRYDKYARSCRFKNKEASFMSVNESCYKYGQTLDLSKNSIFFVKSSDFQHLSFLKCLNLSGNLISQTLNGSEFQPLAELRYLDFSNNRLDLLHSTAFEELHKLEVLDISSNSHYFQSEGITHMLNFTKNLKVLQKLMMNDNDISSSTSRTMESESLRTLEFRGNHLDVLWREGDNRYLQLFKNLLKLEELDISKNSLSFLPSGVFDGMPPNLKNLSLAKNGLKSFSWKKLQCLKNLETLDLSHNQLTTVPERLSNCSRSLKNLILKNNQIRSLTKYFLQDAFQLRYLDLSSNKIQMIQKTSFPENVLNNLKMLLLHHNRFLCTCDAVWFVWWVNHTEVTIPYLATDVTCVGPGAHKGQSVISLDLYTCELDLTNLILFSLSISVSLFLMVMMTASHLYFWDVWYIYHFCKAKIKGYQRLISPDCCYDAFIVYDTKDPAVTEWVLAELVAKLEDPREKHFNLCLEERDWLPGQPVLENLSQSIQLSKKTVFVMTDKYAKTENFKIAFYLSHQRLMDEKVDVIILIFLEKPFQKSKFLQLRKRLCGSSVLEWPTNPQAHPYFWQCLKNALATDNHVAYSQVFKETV
# Experimental: (§1) HEK-BLUE-hTLR7 or hTLR8 reporter cells were obtained from InvivoGen, San Diego, Calif. According to the manufacturer's description, these reporter cells were prepared by co-transfection of HEK293 cells with an inducible secreted embryonic alkaline phosphatase (SEAP) reporter gene and either the human TLR7 or TLR8 gene. The SEAP reporter gene was placed under the control of an IFN-β minimal promoter fused to five NF-κB and AP-1-binding sites. In the presence of a TLR ligand, activation of NF-κB and AP-1 occurs, resulting in a corresponding increase in SEAP levels.
# (§2) In the assay, the HEK cells were grown and maintained using standard cell culture techniques in a growth medium that contained Dulbecco's Modified Eagle Medium (ThermoFisher Scientific Incorporated, Waltham, Mass.) supplemented with 1% penicillin/streptomycin and 10% heat-inactivated Gibco fetal bovine serum (ThermoFisher Scientific). Each compound was solubilized in DMSO to create a 3 mM stock solution. The stock solution was then further diluted with the growth medium to prepare serial dilutions. Each test compound was tested at a concentration of 30, 10, 3.3, 1.1, 0.37, 0.12, 0.04, and 0.01 micromolar using a 96-well format with 5×10^4 cells and 200 microliters of growth medium per well.
# (§3) For each compound, hTLR7, hTLR8, and their respective null control HEK cells were screened. DMSO serially diluted into the growth medium served as the vehicle control. Cell culture supernatants containing the SEAP reporter were collected after an incubation period of 16-20 hours in a cell culture incubator (37° C. and 5% CO2), and either analyzed immediately or stored at −80° C. SEAP levels were measured using the colorimetric enzyme assay (QUANTI-BLUE (InvivoGen) according to manufacturer's instructions.
# (§4) Specifically, the minimum effective concentration of each compound (micromolar) was determined as the lowest concentration of the compound that produced a SEAP expression response at least 2× greater than that observed with the vehicle control wells.
# human TLR8 = molecular target: T2, human TLR8 (Homo sapiens, UniProt Q9NR97); assay: TLR activation, HEK-BLUE-hTLR8 SEAP reporter cells; assay type: cell-based; settings: 16-20 hours, lowest concentration giving SEAP response at least 2x vehicle control, tested 0.01-30 micromolar
# T2 construct: host or cells: HEK293 (HEK-BLUE-hTLR8)
# T2 sequence (Q9NR97 27-1041): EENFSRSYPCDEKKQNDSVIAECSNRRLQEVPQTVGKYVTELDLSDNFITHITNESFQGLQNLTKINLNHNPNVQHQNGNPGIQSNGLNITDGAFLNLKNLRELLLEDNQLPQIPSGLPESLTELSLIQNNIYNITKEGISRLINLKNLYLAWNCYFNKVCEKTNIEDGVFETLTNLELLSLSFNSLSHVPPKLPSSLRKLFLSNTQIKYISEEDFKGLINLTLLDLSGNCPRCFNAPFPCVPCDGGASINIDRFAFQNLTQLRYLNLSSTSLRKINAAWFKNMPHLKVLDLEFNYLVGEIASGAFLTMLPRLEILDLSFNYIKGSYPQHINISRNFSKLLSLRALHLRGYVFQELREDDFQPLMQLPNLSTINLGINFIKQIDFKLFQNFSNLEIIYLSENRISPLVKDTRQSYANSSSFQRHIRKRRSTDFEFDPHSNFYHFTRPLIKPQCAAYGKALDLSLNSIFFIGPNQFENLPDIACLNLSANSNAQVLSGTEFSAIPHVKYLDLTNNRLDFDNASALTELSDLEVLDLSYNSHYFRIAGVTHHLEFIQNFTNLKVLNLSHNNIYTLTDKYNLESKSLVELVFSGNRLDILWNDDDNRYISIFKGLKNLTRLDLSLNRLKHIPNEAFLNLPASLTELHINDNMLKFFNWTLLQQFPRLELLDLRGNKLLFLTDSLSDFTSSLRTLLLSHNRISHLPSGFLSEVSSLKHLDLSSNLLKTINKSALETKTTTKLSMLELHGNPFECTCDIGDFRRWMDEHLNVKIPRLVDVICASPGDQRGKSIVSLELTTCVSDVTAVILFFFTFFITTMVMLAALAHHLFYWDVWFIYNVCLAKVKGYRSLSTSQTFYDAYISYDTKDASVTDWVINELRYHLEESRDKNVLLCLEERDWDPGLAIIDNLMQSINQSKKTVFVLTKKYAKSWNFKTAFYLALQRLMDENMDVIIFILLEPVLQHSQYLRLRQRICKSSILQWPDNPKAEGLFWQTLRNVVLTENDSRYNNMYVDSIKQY
# Experimental: as §1, §2, §3, §4
SMILES,MEC to Produce TLR Activation: TLR 7 (human TLR7),MEC to Produce TLR Activation: TLR 8 (human TLR8)
"CC(C)Cn1cnc2c(N)nc3ccccc3c21 [Comparative Example 1, 1-isobutylimidazo[4,5-c]quinolin-4-amine, reference compound]",10 µM,>30 µM
"CC(C)(O)Cn1cnc2c(N)nc3ccccc3c21 [Comparative Example 2, 1-(4-aminoimidazo[4,5-c]quinolin-1-yl)-2-methyl-propan-2-ol, reference compound]",10 µM,>30 µM
"CC(C)[C@@H](C)n1cnc2c(N)nc3ccccc3c21 [Example 1, 1-[(1R)-1,2-dimethylpropyl]imidazo[4,5-c]quinolin-4-amine]",1.1 µM,>30 µM
"CC(C)[C@H](C)n1cnc2c(N)nc3ccccc3c21 [Example 2, 1-[(1S)-1,2-dimethylpropyl]imidazo[4,5-c]quinolin-4-amine]",>30 µM,>30 µM
"C[C@@H](n1cnc2c(N)nc3ccccc3c21)C(C)(C)C [Example 3, 1-[(1R)-1,2,2-trimethylpropyl]imidazo[4,5-c]quinolin-4-amine]",1.11 µM,>30 µM
"C[C@H](n1cnc2c(N)nc3ccccc3c21)C(C)(C)C [Example 4, 1-[(1S)-1,2,2-trimethylpropyl]imidazo[4,5-c]quinolin-4-amine]",>30 µM,>30 µM
"C[C@H](C1CCCCC1)n1cnc2c(N)nc3ccccc3c21 [Example 5, 1-[(1R)-1-cyclohexylethyl]imidazo[4,5-c]quinolin-4-amine]",1.11 µM,>30 µM
"C[C@@H](C1CCCCC1)n1cnc2c(N)nc3ccccc3c21 [Example 6, 1-[(1S)-1-cyclohexylethyl]imidazo[4,5-c]quinolin-4-amine]",>30 µM,>30 µM
"CCCC[C@H](C(C)C)n1cnc2c(N)nc3ccccc3c21 [Example 7, 1-[(1R)-1-isopropylpentyl]imidazo[4,5-c]quinolin-4-amine]",0.04 µM,>30 µM
"CCCC[C@@H](n1cnc2c(N)nc3ccccc3c21)C(C)(C)C [Example 8, 1-[(1R)-1-tert-butylpentyl]imidazo[4,5-c]quinolin-4-amine]",≤0.01 µM,>30 µM
"C[C@@H](n1cnc2c(N)nc3ccccc3c21)C(C)(C)O [Example 9, (3R)-3-(4-aminoimidazo[4,5-c]quinolin-1-yl)-2-methyl-butan-2-ol]",3.3 µM,>30 µM
"C[C@H](n1cnc2c(N)nc3ccccc3c21)C(C)(C)O [Example 10, (3S)-3-(4-aminoimidazo[4,5-c]quinolin-1-yl)-2-methyl-butan-2-ol]",>30 µM,>30 µM
"CC[C@@H](n1cnc2c(N)nc3ccccc3c21)C(C)(C)O [Example 11, (3R)-3-(4-aminoimidazo[4,5-c]quinolin-1-yl)-2-methyl-pentan-2-ol]",1.1 µM,>30 µM
"CC[C@H](n1cnc2c(N)nc3ccccc3c21)C(C)(C)O [Example 12, (3S)-3-(4-aminoimidazo[4,5-c]quinolin-1-yl)-2-methyl-pentan-2-ol]",>30 µM,>30 µM
"CCC[C@@H](n1cnc2c(N)nc3ccccc3c21)C(C)(C)O [Example 13, (3R)-3-(4-aminoimidazo[4,5-c]quinolin-1-yl)-2-methyl-hexan-2-ol]",0.04 µM,10 µM
"CCC[C@H](n1cnc2c(N)nc3ccccc3c21)C(C)(C)O [Example 14, (3S)-3-(4-aminoimidazo[4,5-c]quinolin-1-yl)-2-methyl-hexan-2-ol]",>30 µM,>30 µM
"CCCC[C@@H](n1cnc2c(N)nc3ccccc3c21)C(C)(C)O [Example 15, (3R)-3-(4-aminoimidazo[4,5-c]quinolin-1-yl)-2-methyl-heptan-2-ol]",0.01 µM,10 µM
"CCCC[C@H](n1cnc2c(N)nc3ccccc3c21)C(C)(C)O [Example 16, (3S)-3-(4-aminoimidazo[4,5-c]quinolin-1-yl)-2-methyl-heptan-2-ol]",>30 µM,>30 µM
"CC(C)C[C@@H](n1cnc2c(N)nc3ccccc3c21)C(C)(C)O [Example 17, (3R)-3-(4-aminoimidazo[4,5-c]quinolin-1-yl)-2,5-dimethyl-hexan-2-ol]",1.1 µM,>30 µM
"CC(C)C[C@H](n1cnc2c(N)nc3ccccc3c21)C(C)(C)O [Example 18, (3S)-3-(4-aminoimidazo[4,5-c]quinolin-1-yl)-2,5-dimethyl-hexan-2-ol]",>30 µM,>30 µM
